According to patent US20110144069A1, “COMPOUNDS FOR TREATING VIRAL INFECTIONS” (priority 2006, published 2011):
pEC50: −log10 of the molar value.

What was measured:
mock-infected MT-4 cells = assay: Compound toxicity in mock-infected cells (WST-1 assay); assay type: cell-based; settings: toxicity measure, host cells; read-out: TC50 (concentration of compound that results in death of 50% of the host cells)
Description: (§1) The HTLV-1 transformed T cell line, MT-4, is highly susceptible to HIV-1 infection. Anti-HIV-1 agents were evaluated in this target cell line by protection from the HIV-induced cytopathic effect. In this assay, viability of both HIV-1 and mock-infected cells was assessed in a colorimetric assay that monitors the ability of metabolically-active cells to reduce the tetrazolium salt WST-1. Cytoprotection by antiviral compounds is indicated by the positive readout of increased WST-1 cleavage.
(§2) Briefly, exponentially growing MT-4 cells were mock-infected or batch-infected with the HIV-1 laboratory strain, NL4-3, at a multiplicity of infection of 0.0005. Following a two hour infection, the cells were washed to remove unbound virus and plated in the presence of increasing concentrations of compound. After four days incubation, cytoprotection in the infected cells and compound toxicity in mock-infected cells were analyzed using the WST-1 assay.

[1] = tested on: HIV-1 laboratory strain, NL4-3; assay: MT-4 Cytoprotection Assay (protection from HIV-induced cytopathic effect, WST-1); assay type: cell-based; settings: Human immunodeficiency virus 1, NL43; representative compounds; read-out: EC50 of less than about 100 nm
Description: MT-4 Cytoprotection Assay
as §1, §2

SMILES	CC50 (mock-infected MT-4 cells)	pEC50 [1]
C=C(C)[C@@H]1CC[C@]2(C(=O)NCc3ccc(C(=O)O)cc3)CC[C@]3(C)[C@H](CC[C@@H]4[C@@]5(C)CC[C@H](OC(=O)CC(C)(C)C(=O)O)C(C)(C)[C@@H]5CC[C@]43C)[C@@H]12 [Compound 71]	~7.7 µM	–
C=C(C)[C@@H]1CC[C@]2(C(=O)NCc3ccccc3C(=O)O)CC[C@]3(C)[C@H](CC[C@@H]4[C@@]5(C)CC[C@H](OC(=O)CC(C)(C)C(=O)O)C(C)(C)[C@@H]5CC[C@]43C)[C@@H]12 [Compound 73]	~6.3 µM	–
CC(C)[C@@H]1CC[C@]2(C(=O)NCCC3CCCCC3)CC[C@]3(C)[C@H](CC[C@@H]4[C@@]5(C)CC[C@H](OC(=O)CC(C)(C)C(=O)O)C(C)(C)[C@@H]5CC[C@]43C)[C@@H]12 [Compound 124]	–	> 7.00
